Results as given in paper PMC11098465, “A comparative analysis of peptide-delivered antisense antibiotics using diverse nucleotide mimics” (RNA, 2024).

Key:
[1] = test system: Cy5 5′-labeled acpP target RNA (40 nt, −20 to +20); assay: Microscale thermophoresis (MST) binding affinity; parameters: species or system Salmonella; details: for EC50 of binding to target mRNA by MST (in words): unconjugated ASO; for EC50: read-out: mRNA-binding affinity (EC50)
Description: To further quantify the binding affinities of the ASOs to the target mRNA, we used MST, a sensitive technique that measures a temperature-induced change in the fluorescence of a substrate as a function of the concentration of a nonfluorescent ligand ([Moon et al. 2018]; [Zimmer et al. 2021]). MST allowed us to quantify target affinity by calculating EC50 values, the half maximal effective concentration of binding to target mRNA (Table 1; Supplemental Fig. S4). […] Both are known to adopt C3′-endo ribose pucker conformation, which enhances their binding affinity to target mRNA ([Julien et al. 2008]; [Pallan et al. 2012]).
For each binding experiment, Cy5 5′-labeled RNA (as described above) was diluted to 10 nM in buffer A (50 mM Tris-HCl pH 7.6, 250 mM KCl, 5 mM MgCl2, 1 mM DTT, 5% glycerol supplemented with 0.05% Tween 20). A series of 16 tubes with different ASO dilutions (500–0.015 nM) were prepared in buffer A. For measurements, each ASO dilution was mixed with one volume of labeled RNA, which led to a final concentration of 5 nM labeled RNA and 250–0.007 nM of ASOs. The reaction was mixed by pipetting and incubated for 30 min at RT in the dark. Capillary forces were used to load the samples into Monolith NT.115 Premium Capillaries; measurements were performed using a Monolith Pico instrument (NanoTemper Technologies Gmbh) at an ambient temperature of 25°C. Instrument parameters were adjusted to 5% LED power, medium MST power, and MST on-time of 2.5 s. An initial fluorescence scan was performed across the capillaries to determine sample quality, which was followed by 16 thermophoresis measurements. […] Data of two independent measurements were analyzed for the ΔFnorm value determined by the MO Affinity Analysis software (NanoTemper Technologies Gmbh). The fitting for EC50 values was done using the Hill equation within the MO Affinity Analysis software. Data are presented as the mean EC50 values of two independent experiments.

[2] = test system: acpP::gfp reporter transcript; assay: In vitro translation of acpP::gfp reporter (PURExpress) with western blot; format: biochemical, Salmonella; parameters: key to Inhibition of translation in vitro: +++: Effect strength is represented by additional (+) signs.; ++: Effect strength is represented by additional (+) signs.; Effect strength is represented by additional (+) signs; details: unconjugated ASO; for Inhibition of in vitro translation of acpP::gfp (in words): western blot of AcpP(1–17)::GFP; for Inhibition of translation in vitro: ASO:RNA 0.6:1 to 5:1, 100 nM RNA, 2 h 37°C, summary grade
Experimental: As a next step, we used a cell-free in vitro translation system ([Popella et al. 2022]) to investigate whether ASO binding to mRNA leads to a block in protein synthesis. As a template, we used the acpP sequence spanning −40 to +51 relative to the AUG start codon fused to a gfp reporter gene (acpP::gfp). This construct was in vitro transcribed, preincubated with different ASOs at different ratios and subsequently translated in vitro. Water was used as a negative control.
For the generation of target RNA::gfp fusion constructs, we used a previously established protocol ([Popella et al. 2022]) and the oligonucleotides JVO-19760/JVO-19761 (Supplemental Table S1) to amplify the genomic region spanning nucleotides –40 to +51 relative to the translational start codon of acpP. The sense oligonucleotide was fused to a T7 promoter sequence for subsequent transcription of the final fusion construct in vitro. The antisense oligonucleotide contained a 30 nt overlapping region with gfp for subsequent fusion PCR with full-length gfp (pXG-10; JVO-19762/JVO-19763) (Supplemental Table S1). The PCR products were purified with NucleoSpin Gel and PCR Clean-up (Macherey-Nagel) according to the manufacturer's instructions, and DNA concentration was quantified with a NanoDrop spectrophotometer (A260 nm).
PCR products were used for T7 RNA polymerase-driven transcription in vitro using the MEGAscript T7 kit (Ambion/Thermo Scientific), according to the manufacturer's instructions and analogous to our previous publication ([Popella et al. 2022]). The concentration of the RNA solution was quantified with Qubit (Fisher Scientific), and the expected product size and RNA integrity were verified on a 6% PAA, 7 M urea gel.
For in vitro translation of target RNA::gfp fusion constructs, the PURExpress In Vitro Protein Synthesis Kit (New England Biolabs, E6800L) was used as described previously ([Popella et al. 2022]). Briefly, the final volume of each in vitro translation reaction was set to 10 µL. One microliter of different concentrations of ASOs ranging from 10 to 0.625 µM was added to 1 µL of in vitro transcribed heat-denatured RNA (1 µM) to adjust the final RNA concentration to 100 nM. The mixtures were preincubated at 37°C for 5 min. Then 4 µL of Solution A and 3 µL of Solution B were added to the preannealed mixtures. After 2 h at 37°C, protein samples were denatured in 1× reducing protein loading buffer (62.6 mM Tris–HCl pH 6.8, 2% SDS, 0.1 mg/mL bromphenol blue, 15.4 mg/mL DTT, 10% glycerol) at 95°C for 5 min.
To visualize in vitro translated proteins, samples were separated on SDS-PAA (12% PAA) gels, with subsequent semi-dry western blot transfer on nitrocellulose membranes. Membranes were blocked with 10% skim milk (in 1× TBS-T) for 1 h and probed with anti-GFP antibody (1:1000; Sigma-Aldrich) in 5% skim milk (in 1× TBS-T) overnight at 4°C. After washing in 1× TBS-T and incubation with an HRP-conjugated secondary antibody (1:5000; Thermo Scientific) in 1× TBS-T, the membrane was incubated with a developing solution kit (Amersham ECL Select Western Blotting Detection Reagent), and protein levels were detected using an ImageQuant LAS 500 (GE Healthcare Life Sciences). Images were processed and band intensities quantified using ImageJ. Protein bands were normalized to the water control.

[3] = unconjugated ASO 250-0.007 nM, 5 nM Cy5 RNA, 50 mM Tris-HCl pH 7.6, 250 mM KCl, 5 mM MgCl2, 30 min RT, 25°C, Hill fit, mean ± SD, two independent experiments

Substance	mRNA-binding affinity (EC50) [1, 3]	Inhibition of in vitro translation of acpP::gfp (in words) [2]	EC50 of binding to target mRNA by MST (in words) [1]	EC50 [1, 3]	Inhibition of translation in vitro [2]
DNA-PTO: phosphorothioate-modified DNA 10mer ASO, sequence CTCATACTCT, targeting acpP −5 to +5 (DNA, all phosphorothioate, methylation of C not given here)	Could not be determined	did not inhibit protein synthesis	–	–	–
PNA: peptide nucleic acid 10mer ASO, sequence CTCATACTCT, targeting acpP −5 to +5 (all peptide nucleic acid (PNA))	–	substantially blocking in vitro translation of acpP::gfp at 1.25× molar excess	upper picomolar range	0.4 ± 0.4 nM	+++
PMO: phosphorodiamidate morpholino 10mer ASO, sequence CTCATACTCT, targeting acpP −5 to +5 (all phosphorodiamidate morpholino (PMO))	–	less pronounced	lower-mid nanomolar range	5.9 ± 2.7 nM	++
RNA-F: 2′-fluorinated RNA 10mer ASO, sequence CTCATACTCT, targeting acpP −5 to +5 (all 2'-fluoro, backbone and T or U not given here)	–	less pronounced	lower-mid nanomolar range	72.8 ± 36.2 nM	++
RNA-MOE: 2′-methoxyethylated RNA 10mer ASO, sequence CTCATACTCT, targeting acpP −5 to +5 (all 2'-MOE, backbone and methylation of C not given here)	–	substantially blocking in vitro translation of acpP::gfp at 1.25× molar excess	upper picomolar range	0.3 ± 0.2 nM	+++
LNA: 2′–4′-locked RNA 10mer ASO, sequence CTCATACTCT, targeting acpP −5 to +5 (all LNA, backbone and methylation of C not given here)	–	substantially blocking in vitro translation of acpP::gfp at 1.25× molar excess	upper picomolar range	0.3 ± 0.1 nM	+++
RNA-OMe: 2′-methylated RNA 10mer ASO, sequence CTCATACTCT, targeting acpP −5 to +5 (all 2'-O-methyl, backbone and T or U not given here)	–	less pronounced	lower-mid nanomolar range	4 ± 0.2 nM	–
